pKd: −log10 of the molar value. Where two headings read alike, the source gives them in different places.
How the values were obtained:
PPARδ = biological target: T1, PPARδ (Homo sapiens, UniProt Q03181); assay: Crossed-curve PPAR transactivation assay (PPARδ); format: cell-based; settings: HeLN cells stably transfected with Gal-hPPARδ and luciferase reporter; crossed curves vs reference agonist, Schild regression; read-out: PPARδ KdApp
T1 construct: Either is a handle for the test and no part of the key
T1 sequence (Q03181 171-441 limits assumed): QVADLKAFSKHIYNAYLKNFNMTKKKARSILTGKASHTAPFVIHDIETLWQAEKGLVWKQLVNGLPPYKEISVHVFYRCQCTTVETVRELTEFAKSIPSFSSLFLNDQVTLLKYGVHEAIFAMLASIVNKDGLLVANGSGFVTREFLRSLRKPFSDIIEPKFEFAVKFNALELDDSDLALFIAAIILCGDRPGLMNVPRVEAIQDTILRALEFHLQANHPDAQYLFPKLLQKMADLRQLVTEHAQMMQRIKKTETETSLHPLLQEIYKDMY
Protocol: (§1) Activation of the PPAR receptors by an agonist (activator) in HeLN cells leads to the expression of a reporter gene, luciferase, which, in the presence of a substrate, generates light. The modulation of the PPAR receptors is measured by quantifying the luminescence produced after incubation of the cells in the presence of a reference agonist. The ligands will displace the agonist from its site. The measurement of the activity is performed by quantifying the light produced. This measurement makes it possible to determine the modulatory activity of the compounds according to the invention by the determination of the constant which is the affinity of the molecule for the PPAR receptor. Since this value can fluctuate depending on the basal activity and the expression of the receptor, it is referred to as apparent Kd (KdApp in nM).
(§2) To determine this constant, “crossed curves” for the test product, against a reference agonist, are prepared using a 96-well plate: 10 concentrations of the test product plus a concentration 0 are arranged in a line, and 7 concentrations of the agonist plus a concentration 0 are arranged in a column. This is 88 measurement points for 1 product and 1 receptor. The remaining 8 wells are used for repeatability controls.
(§3) Measurements are also taken for total agonist controls with the same products.
(§4) The HeLN cell lines used are stable transfectants containing the plasmids ERE-βGlob-Luc-SV-Neo (reporter gene) and PPAR (α, δ, γ) Gal-hPPAR. These cells are seeded in 96-well plates at the rate of 10 000 cells per well in 100 μl of DMEM medium without phenol red and supplemented with 10% of defatted calf serum. The plates are then incubated for 16 hours at 37° C. and 7% CO2.
(§5) The various dilutions of the test products and of the reference ligand are added at the rate of 5 μl per well. The plates are subsequently incubated for 18 hours at 37° C. and 7% CO2. The culture medium is removed by turning over and 100 μl of a 1:1 PBS/luciferin mixture are added to each well. After 5 minutes, the plates are read using the luminescence reader.

PPARγ [1] = biological target: T2, PPARγ (Homo sapiens, UniProt P37231); assay: Crossed-curve PPAR transactivation assay (PPARγ); format: cell-based; settings: for pKd: HeLN cells stably transfected with Gal-hPPARγ and luciferase reporter, crossed curves vs reference agonist, Schild regression, read-out: PPARγ KdApp
T2 construct: PPARγ KdApp; other: HeLN cells stably transfected with Gal-hPPARγ and luciferase reporter; KdApp in nM (PPARγ receptors), compounds according to the present invention; Either is a handle for the test and no part of the key
T2 sequence (P37231 238-505 limits assumed): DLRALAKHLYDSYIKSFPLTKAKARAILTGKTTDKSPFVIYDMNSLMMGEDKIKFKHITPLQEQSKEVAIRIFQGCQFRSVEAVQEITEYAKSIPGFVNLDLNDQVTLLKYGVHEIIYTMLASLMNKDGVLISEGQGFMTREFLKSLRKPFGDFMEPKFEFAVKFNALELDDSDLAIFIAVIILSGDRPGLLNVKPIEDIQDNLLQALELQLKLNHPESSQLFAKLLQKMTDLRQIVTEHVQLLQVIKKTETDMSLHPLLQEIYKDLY
Protocol: as §1, §2, §3, §4, §5

PPARα = biological target: T3, PPARα (Homo sapiens, UniProt Q07869); assay: Crossed-curve PPAR transactivation assay (PPARα); format: cell-based; settings: HeLN cells stably transfected with Gal-hPPARα and luciferase reporter; crossed curves vs reference agonist, Schild regression; read-out: PPARα KdApp
T3 construct: Either is a handle for the test and no part of the key
T3 sequence (Q07869 200-468 limits assumed): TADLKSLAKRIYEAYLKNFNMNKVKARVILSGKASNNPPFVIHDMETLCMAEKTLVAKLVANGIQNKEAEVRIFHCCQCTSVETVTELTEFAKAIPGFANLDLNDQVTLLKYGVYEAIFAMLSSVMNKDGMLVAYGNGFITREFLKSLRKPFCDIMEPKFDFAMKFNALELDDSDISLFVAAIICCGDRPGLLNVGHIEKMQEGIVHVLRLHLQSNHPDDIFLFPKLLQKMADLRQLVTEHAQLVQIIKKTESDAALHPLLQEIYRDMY
Protocol: as §1, §2, §3, §4, §5

PPARγ [2] = settings: Table 1, PPARγ receptors; values described for the compounds of FR-2,812,876; read-out: KdApp in nM (PPARγ receptors), compounds according to Patent FR 2 812 876; cited from earlier work

Compound: CCCCCNC(=O)N(C)c1cccc(-c2ccc(C[C@H](OCC)C(=O)O)cc2)c1 [Example 2, 2(S)-Ethoxy-3-[3′-(1-methyl-3-pentylureido)biphenyl-4-yl]propanoic acid]
- pKd (PPARδ): 5.70
- pKd (PPARγ [1]): 10.52
- pKd (PPARα): 6.60

Compound: CN(Cc1cccc(-c2ccc(CC3SC(=O)NC3=O)cc2)c1)C(=O)C(C)(C)C (centres unmarked) [Example 22, N-[4′-(2,4-Dioxothiazolidin-5-ylmethyl)biphenyl-3-ylmethyl]-2,2,N-trimethylpropionamide]
- Kd (PPARγ [2]): 250 nM

Compound: CCCCCCC(=O)N(C)Cc1cccc(-c2ccc(CC3SC(=O)NC3=O)cc2)c1 (centres unmarked) [Example 35, N-[4′-(2,4-Dioxothiazolidin-5-ylmethyl)biphenyl-3-ylmethyl]-N-methylheptanamide]
- Kd (PPARγ [2]): 1000 nM

Compound: C=CCO[C@@H](Cc1ccc(-c2cccc(N(C)C(=O)NCCCCCCC)c2)cc1)C(=O)O [Example 6, 2(S)-Allyloxy-3-[3′-(3-heptyl-1-methylureido)biphenyl-4-yl]propanoic acid]
- pKd (PPARδ): 7.30
- pKd (PPARγ [1]): 11.52
- pKd (PPARα): 8.70

Compound: CCCCCCCCCC(=O)N(C)Cc1cccc(-c2ccc(CC3SC(=O)NC3=O)cc2)c1 (centres unmarked) [Example 32, N-[4′-(2,4-Dioxothiazolidin-5-ylmethyl)biphenyl-3-ylmethyl]-N-methyldecanamide]
- Kd (PPARγ [2]): 250 nM

Compound: CCCCCCCCNC(=O)c1cccc(-c2ccc(CC3SC(=O)NC3=O)cc2)c1 (centres unmarked) [Example 23, N-Octyl-4′-(2,4-dioxothiazolidin-5-ylmethyl)biphenyl-3-carboxamide]
- Kd (PPARγ [2]): 2000 nM

Compound: CCO[C@@H](Cc1ccc(-c2cccc(CN(C)C(=O)c3ccccc3)c2)cc1)C(=O)O [Example 13, (S)-2-Ethoxy-3-(3′-{[methyl(1-phenylmethanoyl)amino]methyl}biphenyl-4-yl)propionic acid]
- Kd (PPARγ [2]): 500 nM

Compound: CCCCCCCNC(=O)N(C)c1cccc(-c2ccc(C[C@H](OCc3ccccc3)C(=O)O)cc2)c1 [Example 5, 2(S)-Benzyloxy-3-[3′-(3-heptyl-1-methylureido)biphenyl-4-yl]propanoic acid]
- pKd (PPARγ [1]): 10.52
- pKd (PPARα): 6.60

Compound: CCCCCCCNC(=O)N(C)c1cccc(-c2ccc(C[C@H](OCCC)C(=O)O)cc2)c1 [Example 4, 2-(S)-Propyloxy-3-[3′-(3-heptyl-1-methylureido)biphenyl-4-yl]propanoic acid]
- pKd (PPARδ): 6.30
- pKd (PPARγ [1]): 10.60
- pKd (PPARα): 7.52

Compound: CCCCCCCNC(=O)N(C)c1cccc(-c2ccc(C[C@H](OCC)C(=O)O)cc2)c1 [Example 1, 2(S)-Ethoxy-3-[3′-(3-heptyl-1-methylureido)biphenyl-4-yl]propanoic acid]
- pKd (PPARδ): 6.60
- pKd (PPARγ [1]): > 9.00
- Kd (PPARγ [1]; Table 1, PPARγ receptors, read-out: KdApp in nM (PPARγ receptors), compounds according to the present invention): < 1 nM
- pKd (PPARα): 7.52

Reference: patent US7973063B2, “Methods for activating PPAR gamma-type receptors” (Galderma Research & Development, priority 2004, dated 2011)
